The values that follow come from paper PMC8066331, “Anticancer Activity of Triazolo-Thiadiazole Derivatives and Inhibition of AKT1 and AKT2 Activation” (Pharmaceutics, 2021).

In one experiment the test system is SKOV-3. The experiment can be described thus: MTT in vitro antiproliferative assay, SKOV-3. Format: cell-based. The following applies: Homo sapiens, SK-OV-3, SKOV-3, MTT; for IC50: 48 h, concentration causing 50% cell death, read-out: IC50; for GI50 / IC (TGI): 48 h drug exposure; for GI50: read-out: GI50; for IC (TGI): read-out: TGI. An excerpt: (§1) The in vitro antiproliferative activities of the novel triazolo[3,4-b]thiadiazole derivatives were estimated in ten well-established human cancer cell lines including three ovarian (SKOV-3, UWB 1.289, and UWB 1.289+BRCA1), five colorectal adenocarcinoma (DLD-1, HT-29, LS174T, LoVo, and SW403), and two prostate cancer cell lines (PC-3 and DU-145). All cancer cell lines were obtained from the American Type Culture Collection (ATCC) and cultivated in different culture media according to the instructions. The required growth mediums were supplemented with 10% fetal bovine serum and 1% streptomycin/penicillin. All cancer cell lines were cultured as monolayers and maintained at 37 °C, 5% CO2 in humidified air.
(§2) Stock solutions of all tested compounds were prepared by dissolving the required amount of substances in the DMSO solvent to reach the desired concentration of 15 mM.
(§3) To evaluate the in vitro antiproliferative activity of the triazolo[3,4-b]thiadiazole derivatives, 3-(4,5-dimethylthiazol-2-yl)-2,5-diphenyltetrazolium bromide (MTT) assay was assessed. According to the protocol, cells were firstly seeded into a 96-well plate at a density of 8 × 10^3 cells and grown for 24 h at 37 °C, 5% CO2 in humidified air. Subsequently, cells were treated with the tested compounds in a specific range of drug concentrations (1–100 μΜ). Following 48 h of drug exposure, the culture media were discarded and replaced with 100 μL of fresh medium. Afterwards, 50 μL of dissolved MTT in phosphate-buffered saline (PBS) solution (5 mg/mL) were added in each well and cells were incubated for 3 h at 37 °C, 5% CO2 in humidified air. Incubation time was followed by MTT discard and the addition of 100 μL of DMSO solvent so that the formazan crystals could be dissolved. The absorbance of the converted dye was immediately measured at a wavelength of 540 nm on an ELISA reader (VersaMax Microplate Reader, Orleans, CA, USA).
(§4) The in vitro anticancer effect of a tested compound on cell viability was determined by three dose–response parameters termed GI50, TGI, and IC50. More specifically, the GI50 value indicates the required concentration of the compound that impels 50% cell growth inhibition, the TGI value corresponds to the concentration that induces 100% cell growth inhibition, and the IC50 value is the concentration that causes 50% cell death. The two parameters GI50 and TGI represent the cytostatic activity, whereas IC50 reflects the cytotoxic effect of a drug. To estimate the three parameters, nine absorbance measurements were required including control 24 h (Ct24), control 72 h (Ct72), and the mean of cell survival in all seven drug concentrations (Tt72). The percentage growth inhibition was calculated according to National Cancer Institute’s (NCI) protocol: [(Tt72x) − (Ct24)/(Ct72) − (Ct24)] × 100 for concentrations for which Tt72x > Ct24 and [(Tt72x) − (Ct24)/Ct24] × 100 for concentrations for which Tt72x < Ct24. GI50 was calculated from [(Tt72x) − (Ct24)/(Ct72) − (Ct24)] × 100 = 50, TGI was calculated from [(Tt72x) − (Ct24)/(Ct72) − (Ct24)] × 100 = 0, and IC50 was calculated from [(Tt72x) − (Ct24)/Ct24] × 100 = 50. All the experiments were carried out in triplicate.

A further experiment relates to PC-3. The experiment can be described thus: MTT in vitro antiproliferative assay, PC-3. Format: cell-based. The following applies: Homo sapiens, PC-3, MTT; for IC50: 48 h, 50% cell death, read-out: IC50; for GI50 / IC (TGI): 48 h drug exposure; for GI50: read-out: GI50; for IC (TGI): read-out: TGI.
Description: as §1, §2, §3, §4

In general, IC50 refers to the concentration that gives 50% inhibition. For orientation: GI50 means the concentration giving 50% growth inhibition. On to `CCN(CC)S(=O)(=O)c1cc(OC)c(OC)cc1Cc1nnc2sc(-c3cccc(Cl)c3)nn12` [Compound 6a, 2-((6-(3-chlorophenyl)-[1,2,4]triazolo[3,4-b][1,3,4]thiadiazol-3-yl)methyl)-N,N-diethyl-4,5-dimethoxybenzenesulfonamide], for which, in the experiment on SKOV-3, the IC50 was greater than 100 µM, the GI50 was 6 ± 0.3 µM and the IC (TGI) is 14 ± 2.5 µM. In addition, in the experiment with PC-3, the IC50 was greater than 100 µM, the GI50 is 25 ± 1.4 µM and the IC (TGI) amounted to 112 ± 2.5 µM.
For `CCN(CC)S(=O)(=O)c1cc(OC)c(OC)cc1Cc1nnc2sc(-c3ccc(Cl)cc3)nn12` [Compound 6b, 2-((6-(4-chlorophenyl)-[1,2,4]triazolo[3,4-b][1,3,4]thiadiazol-3-yl)methyl)-N,N-diethyl-4,5-dimethoxybenzenesulfonamide], in the experiment with SKOV-3, the IC50 is greater than 100 µM, the GI50 stood at 36 ± 0.1 µM and the IC (TGI) stood at 60 ± 0.8 µM. Also, in the experiment on PC-3, the IC50 was 104 ± 0.8 µM, the GI50 was found to be 32 ± 0.4 µM and the IC (TGI) turned out to be 56 ± 0.6 µM.
As to `CCN(CC)S(=O)(=O)c1cc(OC)c(OC)cc1Cc1nnc2sc(-c3ccc(F)cc3)nn12` [Compound 6c, N,N-diethyl-2-((6-(4-fluorophenyl)-[1,2,4]triazolo[3,4-b][1,3,4]thiadiazol-3-yl)methyl)-4,5-dimethoxybenzenesulfonamide], in the experiment with SKOV-3, the IC50 was greater than 100 µM, the GI50 is greater than 100 µM and the IC (TGI) was greater than 100 µM. Also, in the experiment on PC-3, the IC50 was greater than 100 µM, the concentration for 50% growth inhibition (GI50) stood at 90 ± 2 µM and the IC (TGI) is greater than 100 µM.
Turning to `CCN(CC)S(=O)(=O)c1cc(OC)c(OC)cc1Cc1nnc2sc(-c3ccc([N+](=O)[O-])cc3)nn12` [Compound 6d, N,N-diethyl-4,5-dimethoxy-2-((6-(4-nitrophenyl)-[1,2,4]triazolo[3,4-b][1,3,4]thiadiazol-3-yl)methyl)benzenesulfonamide], in the experiment on SKOV-3, the IC50 was greater than 100 µM, the GI50 was determined as 80 ± 0.5 µM and the IC (TGI) is greater than 100 µM. Also, in the experiment with PC-3, the IC50 was greater than 100 µM, the GI50 amounted to 50 ± 0.5 µM and the IC (TGI) was greater than 100 µM.
For `COc1cc(Cc2nnc3sc(-c4cccc(Cl)c4)nn23)c(S(=O)(=O)N(C(C)C)C(C)C)cc1OC` [Compound 7a, 2-((6-(3-chlorophenyl)-[1,2,4]triazolo[3,4-b][1,3,4]thiadiazol-3-yl)methyl)-N,N-diisopropyl-4,5-dimethoxybenzenesulfonamide], in the experiment on SKOV-3, the IC50 was greater than 100 µM, the GI50 is 16 ± 0.8 µM and the IC (TGI) turned out to be 46 ± 1.5 µM. Besides, in the experiment on PC-3, the IC50 is greater than 100 µM, the GI50 stood at 20 ± 0.8 µM and the IC (TGI) is greater than 100 µM.
Consider `COc1cc(Cc2nnc3sc(-c4ccc(F)cc4)nn23)c(S(=O)(=O)N(C(C)C)C(C)C)cc1OC` [Compound 7b, 2-((6-(4-fluorophenyl)-[1,2,4]triazolo[3,4-b][1,3,4]thiadiazol-3-yl)methyl)-N,N-diisopropyl-4,5-dimethoxybenzenesulfonamide], for which, in the experiment on SKOV-3, the IC50 is greater than 100 µM, the GI50 amounted to 80 ± 0.8 µM and the IC (TGI) was greater than 100 µM. Also, in the experiment with PC-3, the IC50 is greater than 100 µM, the GI50 stood at 25 ± 0.5 µM and the IC (TGI) came to 80 ± 1 µM.
With `COc1cc(Cc2nnc3sc(-c4ccc([N+](=O)[O-])cc4)nn23)c(S(=O)(=O)N(C(C)C)C(C)C)cc1OC` [Compound 7c, N,N-diisopropyl-4,5-dimethoxy-2-((6-(4-nitrophenyl)-[1,2,4]triazolo[3,4-b][1,3,4]thiadiazol-3-yl)methyl)benzenesulfonamide], in the experiment on SKOV-3, the IC50 was determined as 66 ± 2.5 µM, the GI50 was 15 ± 1.4 µM and the IC (TGI) was determined as 28 ± 2.2 µM. Further, in the experiment on PC-3, the IC50 was greater than 100 µM, the concentration for 50% growth inhibition (GI50) is 23 ± 0.8 µM and the IC (TGI) was 102 ± 1.2 µM.
On to `CCN(CC)S(=O)(=O)c1cc(OC)c(OC)cc1Cc1nnc2sc(/C=C/c3ccc(Cl)cc3)nn12` [Compound 9a, (E)-2-((6-(4-chlorostyryl)-[1,2,4]triazolo[3,4-b][1,3,4]thiadiazol-3-yl)methyl)-N,N-diethyl-4,5-dimethoxybenzenesulfonamide], for which, in the experiment on SKOV-3, the IC50 was greater than 100 µM, the GI50 turned out to be 84 ± 2 µM and the IC (TGI) was greater than 100 µM. In the experiment with PC-3, the IC50 was greater than 100 µM, the GI50 stood at 11 ± 1 µM and the IC (TGI) was greater than 100 µM.
As to `CCN(CC)S(=O)(=O)c1cc(OC)c(OC)cc1Cc1nnc2sc(/C=C/c3ccc(F)cc3)nn12` [Compound 9b, (E)-N,N-diethyl-2-((6-(4-fluorostyryl)-[1,2,4]triazolo[3,4-b][1,3,4]thiadiazol-3-yl)methyl)-4,5-dimethoxybenzenesulfonamide], in the experiment on SKOV-3, the IC50 is greater than 100 µM, the GI50 is greater than 100 µM and the IC (TGI) is greater than 100 µM. For the same compound, in the experiment on PC-3, the IC50 was greater than 100 µM, the GI50 stood at 42 ± 1 µM and the IC (TGI) is greater than 100 µM.
Turning to `CCN(CC)S(=O)(=O)c1cc(OC)c(OC)cc1Cc1nnc2sc(/C=C/c3cccc([N+](=O)[O-])c3)nn12` [Compound 9c, (E)-N,N-diethyl-4,5-dimethoxy-2-((6-(3-nitrostyryl)-[1,2,4]triazolo[3,4-b][1,3,4]thiadiazol-3-yl)methyl)benzenesulfonamide], in the experiment on SKOV-3, the IC50 is greater than 100 µM, the GI50 was greater than 100 µM and the IC (TGI) was greater than 100 µM. For the same compound, in the experiment with PC-3, the IC50 is greater than 100 µM, the GI50 was 38 ± 2 µM and the IC (TGI) is greater than 100 µM.
Turning to `CCN(CC)S(=O)(=O)c1cc(OC)c(OC)cc1Cc1nnc2sc(/C=C/c3ccc([N+](=O)[O-])cc3)nn12` [Compound 9d, (E)-N,N-diethyl-4,5-dimethoxy-2-((6-(4-nitrostyryl)-[1,2,4]triazolo[3,4-b][1,3,4]thiadiazol-3-yl)methyl)benzenesulfonamide], in the experiment with SKOV-3, the IC50 is greater than 100 µM, the GI50 was greater than 100 µM and the IC (TGI) was greater than 100 µM. Also, in the experiment with PC-3, the IC50 was greater than 100 µM, the GI50 was 30 ± 0.5 µM and the IC (TGI) is greater than 100 µM.
As to `COc1cc(Cc2nnc3sc(/C=C/c4ccc(Cl)cc4)nn23)c(S(=O)(=O)N(C(C)C)C(C)C)cc1OC` [Compound 10a, (E)-2-((6-(4-chlorostyryl)-[1,2,4]triazolo[3,4-b][1,3,4]thiadiazol-3-yl)methyl)-N,N-diisopro-pyl-4,5-dimethoxybenzenesulfonamide], in the experiment on SKOV-3, the IC50 was greater than 100 µM, the GI50 was found to be 76 ± 6 µM and the IC (TGI) was greater than 100 µM. In the experiment with PC-3, the IC50 was greater than 100 µM, the GI50 came out at 2 ± 0.5 µM and the IC (TGI) turned out to be 84 ± 2 µM.
As to `COc1cc(Cc2nnc3sc(/C=C/c4ccc(F)cc4)nn23)c(S(=O)(=O)N(C(C)C)C(C)C)cc1OC` [Compound 10b, (E)-2-((6-(4-fluorostyryl)-[1,2,4]triazolo[3,4-b][1,3,4]thiadiazol-3-yl)methyl)-N,N-diisopro-pyl-4,5-dimethoxybenzenesulfonamide], in the experiment with SKOV-3, the IC50 is greater than 100 µM, the GI50 was found to be 50 ± 2 µM and the IC (TGI) is greater than 100 µM. Moreover, in the experiment with PC-3, the IC50 is greater than 100 µM, the GI50 turned out to be 31 ± 1.1 µM and the IC (TGI) was greater than 100 µM.
